# Test results as given in patent publication US4871774A, “Medical treatment” (The Boots Company PLC, priority 1987, dated 1989).
# Several values for one entry are separate records, joined by “and”; a condition that tells them apart may be missing. Identical values can stand only once.
# Legend:
# [1] = test system: uptake of radiolabelled dopamine into rat striatal synaptosomes; experiment: Inhibition of dopamine uptake in vitro by plasma from drug treated rats (3H-dopamine, rat striatal synaptosomes); assay type: biochemical, rat (CD, Sprague-Dawley); conditions: for % Inhibition of dopamine uptake in Individual Rats: hydrochloride monohydrate; for % Inhibition of dopamine uptake, Mean (±SEM): mean of 4 rats
# Description: (3) Inhibition of dopamine uptake in vitro by plasma from drug treated rats
# To obtain the synaptosomes, untreated male CD rats (Sprague-Dawley 200-250 g; Charles River) were killed by cervical dislocation, the brains removed and the striata of two or three rats dissected out and placed in ice-cold saline. The pooled tissue was homogenised in 20 volumes of ice-cold 0.32M sucrose in a glass-teflon homogeniser with 0.35 mm clearance. The homogenate was spun at 1500×g for 10 minutes in a refrigerated (4° C.) Heraeus Christ minicentrifuge. The supernatant was transferred into a polypropylene sterilin tube and stored on ice for as short a time as possible prior to use in the radiolabelled dopamine uptake assay.
# Control rats were orally administered distilled water. After one hour the rats were killed by CO2 inhalation overdose, the chest cavity opened and blood immediately removed from the heart and mixed with an anticoagulant solution.
# The rat blood/anticoagulant mixture was spun at 5750×g for 20 minutes in a Heraeus Christ minicentrifuge at room temperature. The plasma was removed and kept at room temperature for as short a time as possible before analysis in the radiolabelled dopamine uptake assay. The fresh plasma samples from the rat study were initially maintained at 37° C. for 10-15 minutes before starting the assay. 300 μl of each plasma sample was added to six 5 ml polypropylene tubes already containing 50 μl of saline at room temperature. Four of these tubes were incubated at 37° C. to assess active radiolabelled dopamine uptake. The other two tubes were immediately cooled to c.3° C. and maintained at this temperature to account for passive radiolabelled dopamine uptake.
# (a) Active uptake of radiolabelled dopamine
# To each tube at 37° C. was added 100 μl of fresh striatal synaptosomes, prepared as above. These tubes were then agitated in the water bath at 37° C. for 5 minutes prior to the addition of 50 μl ice-cold ^3 H-dopamine solution (final concentration 1×10^-7 M) (Amersham International). The reaction was stopped after a further 5 minutes of agitation and incubation at 37° C. by removing the tubes from the water bath and immediately adding 4 ml of ice-cold saline. The contents of the tube were then rapidly filtered over Whatman glass fibre (GF/F) filters supported on a Millipore 1225 manifold linked to an Edwards 2-stage vacuum pump. The tubes were rinsed with 2×4 ml of ice-cold saline and this was also rapidly filtered. Finally, each manifold well was washed with 4 ml of ice-cold saline.
# (b) Passive uptake of radiolabelled dopamine
# To the two tubes maintained at c.3° C. was added 100 μl of fresh striatal synaptosomes followed by 50 μl of ice-cold ^3 H-dopamine solution (final concentration 1×10^-7 M). The "reaction" in these tubes was terminated by the addition of 4 ml ice-cold saline and the samples were then rapidly filtered and washed as described in (a) above.
# All filters were placed into glass vials and 10 ml of Packard ES-299 scintillation fluid added. Filters were allowed to solubilise for at least 1 hour before the radioactivity accumulated was assayed by liquid scintillation counting.
# (c) Calculation of percentage inhibition of ^3 H-dopamine uptake
# The amount of passive uptake of ^3 H-dopamine at c.3° C. (measured in cpm) was subtracted from the amount of active ^3 H-dopamine uptake at 37° C. (measured in cpm) to derive net ^3 H-dopamine uptake. The resulting value was then expressed as a percentage (X) of the net ^3 H-dopamine uptake recorded for control plasma. The latter plasma samples were obtained from distilled water-treated control rats. The percentage inhibition value (X) was calculated using the following formula: [formula]
# Mean [±1 standard error of the mean (SEM)] percentage inhibition was then determined for each dose.
# [2] = test system: brain DOPAC (turnover of dopamine); experiment: Turnover of dopamine in rodent brains by determination of DOPAC concentrations (rat); assay type: in vivo, rat (Sprague-Dawley); conditions: 10 mg/kg oral, 2 h
# Excerpt: (7) Measurement of the turnover of dopamine in rodent brains by determination of DOPAC concentrations following drug administration
# Inhibition of dopamine reuptake in the brain reduces the rate at which dopamine is synthesised and metabolised (the turnover rate). This can be assessed by measuring the amount of the dopamine metabolite DOPAC (dihydroxyphenylacetic acid) which accumulates in the brains of rats and mice. In addition, the administration of probenecid blocks active transport of DOPAC out of the brain. The subsequent rise in brain DOPAC concentrations is attenuated by drugs which inhibit dopamine reuptake.
# One group of animals was killed two hours later. An additional group was administered probenecid (200 mg/kg i.p.; Sigma Chemical Co.) 30 minutes after the drug and then killed after a further 90 minutes. The animals were killed by decapitation and brains were rapidly removed and dissected on an ice-chilled porcelain plate. They were cut longitudinally along the midline; one half was retained for whole brain analysis while the striatum was dissected from the other. Tissues were immediately frozen in liquid N2 and stored over dry ice (-80° C.) until assay. Whole brain tissue was homogenised in 5 volumes 0.4M perchloric acid (containing 0.01% (w/v) Na2 S2 O3, 0.1% (w/v) EDTA) and striata in 600 μl using a Polytron (setting 6; 20 seconds) fitted with a microprobe (PT-7). Samples were then centrifuged at 30,000×g (whole brain samples) or at 3,500×g (striata) using a microfuge (Beckman) set up to take 1200 μl polypropylene tubes. Aliquots (50 μl) of the clear supernatants were then injected automatically into the chromatographic system for the separation and quantification of DOPAC.
# High pressure liquid chromatography (HPLC) combined with electrochemical detection (ECD) was employed to assay DOPAC. A mobile phase (0.1M CH3 OH (84:16%) containing 0.1% octanesulphonic acid, 0.1% EDTA and 0.01% Na2 S2 O3) was delivered by a Dupont 870 pump module at a flow-rate of 1.0 ml/min to a reverse-phase analytical column (25×0.4cm) and guard column (both packed with 5 μm Spherisorb ODS 2) maintained at 45° C. in a thermostatically controlled cabinet. Automatic sample injection was provided by a WISP 710B module (Waters Associates) and ECD was performed using a Bioanalytical Systems LC4A controller and cell, with a glassy carbon electrode maintained at +0.65 v versus a Ag-AgCl reference electrode. The controller was set at 20 nA full-scale and output from the cell recorded using a Spectra-Physics 4100 automatic computing integrator. Quantification of DOPAC was effected by the computing integrator after calibration of the HPLC-ECD system using DOPAC of known concentration and including isoprenaline as an internal standard. […]
# [3] = plasma 1 h after 100 mg/kg oral
smiles,measurement,setting,value
"CC(C)CC(N(C)C)C1(c2ccc(Cl)cc2)CCC1.Cl.O (centres unmarked) [N,N-dimethyl-1-[1-(4-chlorophenyl)cyclobutyl]-3-methylbutylamine hydrochloride monohydrate]",% Inhibition of dopamine uptake in Individual Rats,[1]; plasma 1 h after 10 mg/kg oral,33% and 23% and 13% and 17%
same,"% Inhibition of dopamine uptake, Mean (±SEM)",[1]; plasma 1 h after 10 mg/kg oral,22.8 ± 5.5%
same,% Inhibition of dopamine uptake in Individual Rats,[1]; plasma 1 h after 30 mg/kg oral,54% and 35% and 49% and 42%
same,"% Inhibition of dopamine uptake, Mean (±SEM)",[1]; plasma 1 h after 30 mg/kg oral,45.0 ± 4.1%
same,% Inhibition of dopamine uptake in Individual Rats,[1]; [3],53% and 59% and 67% and 55%
same,"% Inhibition of dopamine uptake, Mean (±SEM)",[1]; [3],58.5 ± 3.1%
same,inhibition of radiolabelled dopamine uptake (in words),"[1]; plasma from rats, 10, 30 or 100 mg/kg oral",dose-dependent inhibition of radiolabelled dopamine uptake
same,Brain DOPAC Levels,"[2]; A (drug alone), striatum, control 921 ± 56",601 ± 17 ng/g wet wt
same,Brain DOPAC Levels,"[2]; A (drug alone), whole brain, control 62 ± 5",36 ± 4 ng/g wet wt
same,Brain DOPAC Levels,"[2]; B (with probenecid 200 mg/kg i.p.), striatum, control 1325 ± 79",920 ± 70 ng/g wet wt
same,Brain DOPAC Levels,"[2]; B (with probenecid 200 mg/kg i.p.), whole brain, control 169 ± 3",130 ± 9 ng/g wet wt
